The values below are quoted from earlier work in patent publication US11352671B2, “Predicting therapeutic response in Parkinson's disease” (Vanderbilt University, priority 2015, dated 2022).

For the data set the following is noted: in vivo.

In the case of `N[C@@H](Cc1ccc(O)c(O)c1)C(=O)O` [levodopa], the “share that crosses the blood-brain barrier” value is reported as 5-10%.
